The values below come from patent US20240174680A1, “CDK2 INHIBITORS AND METHODS OF USING THE SAME” (Cedilla Therapeutics, Inc., priority 2021, published 2024).

This experiment addresses CDK2/Cyclin E1 (Homo sapiens, UniProt P24941). The experiment is described as follows: CDK2/Cyclin E1 Caliper LabChip EZ Reader mobility shift assay. The settings on record: read-out: Caliper Assay (CDK2/CCNE1): IC50. On the set-up: purchased Eurofins 14-475. The experiment is classed as biochemical. The method, boiled down: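 Substrate-to-product conversion of fluorescent peptide (1.5 μM final) read by capillary electrophoresis after 100 min reaction, EDTA-quenched. Enzyme (2.5 nM final) and ATP (100 μM final) were preincubated 30 min with inhibitor dilutions first. % activity vs concentration fitted four-parameter for IC50.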

Turning to `CNC(=O)[C@@H](NC(=O)[C@@H]1CN(C(=O)c2cnn(Cc3ccccc3)c2)CC12CN(C(=O)[C@H]1CC1(C)C)C2)[C@@H](C)OCC(C)C` [I-137A], the IC50 lay within 100 to 1000 nM.
Turning to `CNC(=O)[C@@H](NC(=O)[C@@H]1CN(C(=O)c2c[nH]c3ccccc23)CC12CN(C(=O)[C@H]1CC1(C)C)C2)[C@@H](C)OCc1ccccc1` [I-72A], the IC50 was greater than 10000 nM.
Next, `CC1(C)C[C@@H]1C(=O)N1CC2(CN(C(=O)c3cnn(Cc4ccccc4)c3)C[C@H]2C(=O)NCc2nc3ccccc3o2)C1` [I-230]: 1000 to 10000 nM; `C[C@@H](OCc1ccccc1)[C@H](NC(=O)C1CN(C(=O)c2cnn(Cc3ccccc3)c2)CC12CN(C(=O)[C@H]1CC1(C)C)C2)C(=O)NCCO` (stereo partly shown) [I-30]: 10 to 100 nM.
With `CC1(C)C[C@@H]1C(=O)N1CC2(CN(C(=O)c3cncs3)C[C@H]2C(=O)NC(c2cccc(C3CCCCC3)n2)C2CCCO2)C1` (stereo partly shown) [I-495], the IC50 is 10 to 100 nM.
Regarding `Cc1ccc(CNC(=O)[C@@H]2CN(C(=O)c3cnn(Cc4ccncc4F)c3)CC23CN(C(=O)[C@H]2CC2(C)C)C3)nn1` [I-35], the IC50 is greater than 10000 nM.
Consider `CNC(=O)[C@@H](NC(=O)[C@H]1CN(C(=O)c2cnn(Cc3ccccc3)c2)CC12CN(C(=O)C1(F)CC1)C2)[C@@H](C)OCc1ccccc1` [I-71B], for which the IC50 was greater than 10000 nM.
To `C[C@@H](OCC1CCCCC1)[C@@H](COC(F)(F)F)NC(=O)[C@@H]1CN(C(=O)c2cnn(Cc3ccccc3)c2)CC12CN(C(=O)[C@H]1CC1(C)C)C2` [I-309] belongs 10 to 100 nM; to `C[C@@H](OCC1CCOCC1)[C@@H](COC(F)(F)F)NC(=O)[C@@H]1CN(C(=O)c2cncs2)CC12CN(C(=O)[C@H]1CC1(C)C)C2` [I-428], 100 to 1000 nM.
Consider `CNC(=O)[C@@H](NC(=O)[C@H]1CN(C(=O)c2cnn(Cc3ccccc3)c2)CC12CN(C(=O)C(C)(C)C)C2)[C@@H](C)OCc1ccccc1` [I-65B], for which the IC50 was greater than 10000 nM.
Next, `CC1(C)C[C@@H]1C(=O)N1CC2(CN(C(=O)c3cnn(Cc4ccccc4)c3)C[C@@H]2C(=O)N2CCC(Cc3ccccc3)CC2)C1` [I-58B]: 1000 to 10000 nM.
Regarding `CNC(=O)[C@@H](NC(=O)[C@@H]1CN(S(=O)(=O)c2cnn(Cc3ccccc3)c2)CC12CN(C(=O)[C@H]1CC1(C)C)C2)[C@@H](C)OCc1ccccc1` [I-79A], the IC50 is greater than 10000 nM.
Next, `CC1(C)C[C@@H]1C(=O)N1CC2(CN(C(=O)c3cnn(Cc4ccccc4)c3)C[C@H]2C(=O)NCc2ccc(O)nn2)C1` [I-400]: greater than 10000 nM; `CNC(=O)[C@@H](NC(=O)[C@@H]1CN(C(=O)c2c[nH]c(=O)s2)CC12CN(C(=O)[C@H]1CC1(C)C)C2)[C@@H](C)OCC1CCCCC1` [I-184]: 100 to 1000 nM; `CNC(=O)[C@@H](NC(=O)[C@@H]1CN(C(=O)c2cnc(Cl)s2)CC12CN(C(=O)[C@H]1CC1(C)C)C2)[C@@H](C)OCC1CCCCC1` [I-189A]: 100 to 1000 nM.
To `Cc1ccc(CNC(=O)[C@@H]2CN(C(=O)c3cnn(Cc4ccccc4)c3)CC23CN(C(=O)[C@H]2CC2(C)C)C3)nc1` [I-365] belongs 1000 to 10000 nM.
On to `C[C@@H](OCc1ccccc1)[C@H](NC(=O)C1CN(C(=O)c2cnn(Cc3ccccc3)c2)CC12CN(C(=O)[C@H]1CC1(C)C)C2)C(=O)N1CC2(CCC2)C1` (stereo partly shown) [I-106], for which the IC50 is 10 to 100 nM.
Next, `CNC(=O)[C@@H](NC(=O)[C@H]1CN(C(=O)c2cnn(Cc3ccccc3)c2)CC12CN(C(=O)CC(C)C)C2)[C@@H](C)OCc1ccccc1` [I-69B]: greater than 10000 nM; `CC1(C)C[C@@H]1C(=O)N1CC2(CN(C(=O)c3cnn(Cc4ccccc4)c3)C[C@H]2C(=O)N2CCC(OCc3ccccc3)CC2)C1` [I-214]: 1000 to 10000 nM; `COCC1CCCN(C(=O)[C@@H](NC(=O)C2CN(C(=O)c3cnn(Cc4ccccc4)c3)CC23CN(C(=O)[C@H]2CC2(C)C)C3)[C@@H](C)OCc2ccccc2)C1` (stereo partly shown) [I-64]: 10 to 100 nM.
`CNC(=O)[C@@H](NC(=O)[C@H]1CN(C(=O)c2c[nH]c3ccccc23)CC12CN(C(=O)[C@H]1CC1(C)C)C2)[C@@H](C)OCc1ccccc1` [I-72B]: the IC50 was greater than 10000 nM.
Next, `CC1(C)C[C@@H]1C(=O)N1CC2(CN(C(=O)c3cnn(Cc4ccccc4)c3)C[C@H]2C(=O)N[C@@H]2CCCN(C(=O)C3CCCCC3)C2)C1` [I-215]: 1000 to 10000 nM.
To `[2H]C([2H])([2H])NC(=O)C(NC(=O)[C@@H]1CN(C(=O)c2cncs2)CC12CN(C(=O)[C@H]1CC1(C)C)C2)c1cccc(N2CCOCC2)n1` (stereo partly shown) [I-18] belongs 1000 to 10000 nM; to `CNC(=O)[C@@H](NC(=O)[C@@H]1CN(C(=O)c2cnc(C)s2)CC12CN(C(=O)[C@H]1CC1(C)C)C2)[C@@H](C)OCC1CCCCC1` [I-156A], 10 to 100 nM.
On to `COC[C@H]1CCCN(C(=O)[C@@H](NC(=O)[C@@H]2CN(C(=O)c3cncs3)CC23CN(C(=O)[C@H]2CC2(C)C)C3)[C@@H](C)OCc2ccccc2F)C1` [I-321], for which the IC50 was 10 to 100 nM.
Next, `C[C@@H](OCC1CCCCC1)[C@@H](CO)NC(=O)[C@H]1CN(C(=O)c2cnn(Cc3ccccc3)c2)CC12CN(C(=O)[C@H]1CC1(C)C)C2` [I-135B]: 100 to 1000 nM; `C[C@@H](OCC1CCCCC1)[C@H](NC(=O)[C@H]1CN(C(=O)c2cn[nH]c2)CC12CN(C(=O)[C@H]1CC1(C)C)C2)C(=O)N1CCC(F)(F)CC1` [I-154B]: 1000 to 10000 nM; `COC[C@H]1CCCN(C(=O)[C@@H](NC(=O)[C@@H]2CN(C(=O)c3cncs3)CC23CN(C(=O)C(C)(C)C2CC2)C3)[C@@H](C)OCC2CCCCC2)C1` [I-389]: no more than 10 nM.
To `CNC(=O)[C@@H](NC(=O)[C@H]1CN(C(=O)c2cnn(Cc3ccccc3)c2)CC12CN(C(=O)[C@H]1CC1(C)C)C2)[C@@H](C)OCC1(C(F)(F)F)CC1` [I-205B] belongs 1000 to 10000 nM.
Take `CC1(C)C[C@@H]1C(=O)N1CC2(CN(C(=O)c3cnn(Cc4ccccc4)c3)C[C@H]2C(=O)N[C@@H]2CCN(C3CC3)C2=O)C1` [I-259]: the IC50 is greater than 10000 nM.
To `COCCNC(=O)[C@@H]1CN(C(=O)c2cnn(Cc3ccccc3)c2)CC12CN(C(=O)[C@H]1CC1(C)C)C2` [I-122A] belongs greater than 10000 nM; to `C[C@@H](OCC1CCCCC1)[C@H](NC(=O)C1CN(C(=O)c2cnn(Cc3ccccc3)c2)CC12CN(C(=O)[C@H]1CC1(C)C)C2)C(=O)N1CCCC(CO)C1` (stereo partly shown) [I-105], no more than 10 nM; to `CNC(=O)[C@@H](NC(=O)[C@H]1CN(C(=O)c2cnc[nH]2)CC12CN(C(=O)[C@H]1CC1(C)C)C2)[C@@H](C)OCc1ccccc1` [I-44B], greater than 10000 nM.
To `CNC(=O)[C@@H](NC(=O)[C@@H]1CN(C(=O)c2cncs2)CC12CN(CC1CCCO1)C2)[C@@H](C)OCC1CCCCC1` (stereo partly shown) [I-352] belongs greater than 10000 nM; to `C[C@@H](OCC1CCCCC1)[C@H](NC(=O)[C@@H]1CN(C(=O)c2ccns2)CC12CN(C(=O)[C@H]1CC1(C)C)C2)C(=O)N1CCCCC1` [I-217], no more than 10 nM.
To `CCCCC1CC1C(=O)N1CC2(CN(C(=O)c3cnn(Cc4ccccc4)c3)C[C@@H]2C(=O)N[C@H](C(=O)NC)[C@@H](C)OCc2ccccc2)C1` (stereo partly shown) [I-94B] belongs greater than 10000 nM; to `CC1(C)C[C@@H]1C(=O)N1CC2(CN(C(=O)c3cnn(Cc4ccccc4)c3)C[C@@H]2C(=O)NC2CCCN(C(=O)c3ccccc3)C2)C1` (stereo partly shown) [I-59B], greater than 10000 nM.
In the case of `CN(C)C(=O)C(NC(=O)[C@@H]1CN(C(=O)c2cncs2)CC12CN(C(=O)C(C)(C)C1CC1)C2)c1cccc(C2CCOCC2)n1` (stereo partly shown) [I-340], the IC50 lay within 1000 to 10000 nM.
Next, `C[C@@H](OCC1CCC(F)(F)CC1)[C@H](NC(=O)[C@@H]1CN(C(=O)c2cnn(Cc3ccc(F)cc3)c2)CC12CN(C(=O)[C@H]1CC1(C)C)C2)C(N)=O` [I-203]: no more than 10 nM.
To `CNC(=O)[C@@H](NC(=O)[C@@H]1CN(C(=O)c2cnn(Cc3ccccc3)c2)CC12CN(C(=O)[C@H]1CC1(C)C)C2)C(C)(C)S(=O)(=O)Cc1ccccc1` [I-199, (S)-6-(1-benzyl-1H-pyrazole-4-carbonyl)-N—((R)-3-(benzylsulfonyl)-3-methyl-1-(methylamino)-1-oxobutan-2-yl)-2-((S)-2,2-dimethylcyclopropane-1-carbonyl)-2,6-diazaspiro[3.4]octane-8-carboxamide] belongs 100 to 1000 nM; to `CNC(=O)[C@@H](NC(=O)[C@@H]1CN(C(=O)c2scnc2C(F)(F)F)CC12CN(C(=O)[C@H]1CC1(C)C)C2)[C@@H](C)OCC1CCCCC1` [I-163A], greater than 10000 nM.
For the compound `C[C@@H](OCC1CCCCC1)[C@H](NC(=O)[C@@H]1CN(C(=O)c2cnn(Cc3ccccc3)c2)CC12CN(C(=O)[C@H]1CC1(C)C)C2)C(=O)N1CCC(CN)CC1` [I-219], the IC50 is no more than 10 nM.
To `COC[C@H]1CCCN(C(=O)[C@@H](NC(=O)[C@@H]2CN(C(=O)c3cncs3)CC23CN(C(=O)[C@H]2CC2(C)C)C3)[C@@H](C)OCc2ccc(OC(F)(F)F)cc2)C1` [I-320] belongs no more than 10 nM; to `Cc1nc(C)c(C(=O)N2C[C@@H](C(=O)NC(c3cccc(C4CCOCC4)n3)C(C)(C)O)C3(C2)CN(C(=O)[C@H]2CC2(C)C)C3)s1` (stereo partly shown) [I-437], greater than 10000 nM.
Take `CNC(=O)[C@@H](NC(=O)[C@H]1CN(Cc2cnn(Cc3ccccc3)c2)CC12CN(C(=O)[C@H]1CC1(C)C)C2)[C@@H](C)OCc1ccccc1` [I-16B]: the IC50 is greater than 10000 nM.
As to `CNC(=O)C(NC(=O)[C@@H]1CN(C(=O)c2cncs2)CC12CN(C(=O)[C@H]1CC1(C)C)C2)c1cccc(N2CC3(CC(C(F)(F)F)C3)C2)n1` (stereo partly shown) [I-430], the IC50 lay within 100 to 1000 nM.
As to `CNC(=O)[C@@H](NC(=O)[C@@H]1CN(C(=O)c2scnc2C(C)(C)C)CC12CN(C(=O)[C@H]1CC1(C)C)C2)[C@@H](C)OCC1CCCCC1` [I-231A], the IC50 was 1000 to 10000 nM.
Consider `CNC(=O)[C@@H](NC(=O)[C@@H]1CN(C(=O)c2cnn(CC3CC3)c2)CC12CN(C(=O)CC1CC1)C2)[C@@H](C)OCc1ccccc1` [I-53A], for which the IC50 is greater than 10000 nM.
Regarding `CC1(C)C[C@@H]1C(=O)N1CC2(CN(C(=O)c3cnn(Cc4ccccc4)c3)C[C@@H]2C(=O)Nc2ccc(-c3ccccc3)cc2)C1` [I-81B], the IC50 lay in the range of 1000 to 10000 nM.
